Source: ChEMBL document CHEMBL1147894, “Amphiphilic polyether branched molecules to increase the circulation time of cationic particles” (Bioorg Med Chem, 2007)
The source made the active and inactive calls. No cut-off for these calls is given here.

Legend:
Mus musculus = organism: Mus musculus; experiment: Biodistribution in C57BL/6 mouse blood after 30 mins; format: ADME, organism-based; conditions: in vivo, 0.5 h
B16 = experiment: Decrease in transfection efficacy in […] B16 cells assessed by luciferase assay; format: functional, cell-based

Activity (Mus musculus) [%] | SMILES | Activity (B16)
2.7 | CCCCCCCCCCCCCCN(CCCCCCCCCCCCCC)C(=O)CNC(=O)CNCCCN(CCCN)CCCN.Cl.Cl.Cl.Cl | –
8 | CCCCCCCCCCCCCCCCCCN(CCCCCCCCCCCCCCCCCC)C(=O)CNC(=O)CNC(=O)CNC(=O)OCC(COC(CO)CO)COC(CO)CO | Active
